Experimental data published in patent US9481674B1, “Dihydropyrrolopyridine inhibitors of ROR-gamma” (Vitae Pharmaceuticals, Inc., priority 2016, dated 2016).

How the values were obtained:
[1] = molecular target: T1, recombinant RORγ Ligand Binding Domain (LBD) protein (Homo sapiens, UniProt P51449); test: Radio-Ligand RORγ Binding Assay (Assay 1); conditions: cell-free competition with 25-hydroxy[26,27-3H]-cholesterol; read-out: RORγ Binding Ki Range* (nM) (Assay 1)
T1 construct: 6×His; GST
T1 sequence (P51449 269-508 limits assumed): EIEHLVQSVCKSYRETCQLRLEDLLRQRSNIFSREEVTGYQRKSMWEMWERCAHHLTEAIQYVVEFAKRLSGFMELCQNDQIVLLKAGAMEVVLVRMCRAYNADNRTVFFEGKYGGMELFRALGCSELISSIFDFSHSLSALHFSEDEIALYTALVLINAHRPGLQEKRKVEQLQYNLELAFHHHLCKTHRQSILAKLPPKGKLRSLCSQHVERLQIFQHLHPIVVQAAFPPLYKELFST
Procedure: Radio-Ligand RORγ Binding Assay (Assay 1)
The plate was shaken at 700 rpm for 20 min and incubated for 10 min at rt, after which 40 μL of poly-Lys YSi SPA beads (PerkinElmer, Cat. # RPNQ0010) were added to achieve 50 μg of the beads per well. The plate was incubated on an orbital shaker for 20 min and then for 10 min without agitation at rt. SPA signal for tritium beta radiation was registered on PerkinElmer Microbeta plate reader.

[2] = test system: IL-17A production; test: Human Whole Blood Assay (Assay 3); format: cell-based; conditions: IL-17A, 50% blood/media, CytoStim, 48 h, read-out: 50% Human Whole Blood Assay IC50, nM* (Assay 3)
Procedure: Human Whole Blood Assay (Assay 3)
Compounds of the invention were tested in the human whole blood assay to measure their effects on IL-17A production as determined by cytokine secretion into 50% blood/media supernatant. Mixtures of sodium heparinized whole blood (isolated from healthy human donors) and the T cell activator CytoStim, in the presence or absence of compound, were plated in sterilized, tissue culture-treated 24-well plates. Specifically, the mixtures in each well were as follows: (1) 500 μL of whole blood, (2) 250 μL of compound diluted into RPMI-1640 media containing 10% HyClone™ FCS (Thermo Fisher Scientific, Waltham, Mass.), Gibco® Pen/Strep and Gibco® NEAA (Life Technologies, Grand Island, N.Y.), and (3) 250 μL of CytoStim (Miltenyi Biotech, Germany) diluted to a final concentration of 10 μL/mL in complete cell culture medium.
IL-17A cytokine expression was determined using 25 μL of the transferred supernatant diluted with 25 μL of Diluent 43 from the Human IL-17A V-PLEX™ kit (cat. # K151RFD-4, Meso Scale Discovery, Rockville, Md.). The assay was performed according to the manufacturer's instructions using included reagents. The IL-17A V-PLEX™ plates were read using the Meso Scale Discovery Imager (Model 1200).

[3] = molecular target: T2, full-length RORγt in Jurkat cells (Homo sapiens, UniProt P51449)
T2 sequence (P51449 1-497 isoform P51449-2): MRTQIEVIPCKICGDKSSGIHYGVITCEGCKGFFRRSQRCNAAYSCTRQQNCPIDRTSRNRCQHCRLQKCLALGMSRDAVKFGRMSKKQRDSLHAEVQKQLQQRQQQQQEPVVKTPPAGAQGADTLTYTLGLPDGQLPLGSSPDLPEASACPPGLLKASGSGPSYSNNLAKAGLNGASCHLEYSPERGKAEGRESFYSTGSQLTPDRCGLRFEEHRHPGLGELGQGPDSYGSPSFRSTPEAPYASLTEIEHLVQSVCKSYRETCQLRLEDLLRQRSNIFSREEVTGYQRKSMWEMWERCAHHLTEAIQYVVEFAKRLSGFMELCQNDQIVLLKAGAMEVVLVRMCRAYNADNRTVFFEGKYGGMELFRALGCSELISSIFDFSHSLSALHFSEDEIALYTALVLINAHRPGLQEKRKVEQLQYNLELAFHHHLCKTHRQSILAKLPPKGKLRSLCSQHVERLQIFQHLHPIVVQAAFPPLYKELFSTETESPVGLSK
Procedure: ROR ? t 5×RORE Assay in Jurkat Cells (Assay 2)
Compounds of the present invention were tested for RORγ inverse agonist activity in a cell-based, transcriptional activity assay. […] Luciferase activity in the conditioned supernatants was determined with NanoGlo® assay reagents (Promega, Cat.# N1130).

| Compound | Ki [1] [nM] | IC50 [2] [nM] | IC50 [3] [µM] |
| --- | --- | --- | --- |
| CCS(=O)(=O)c1ccc([C@H](CO)NC(=O)c2cnc3c(c2)CN(C[C@@H]2CC[C@@H](C(F)(F)F)OC2)[C@H]3C(C)C)nc1 (single isomer, unassigned) [Compound 1] | < 100 | < 100 |  |
| CCS(=O)(=O)c1ccc([C@H](CO)NC(=O)c2cnc3c(c2)CN(C[C@@H]2CC[C@@H](C(F)(F)F)OC2)[C@H]3C(C)C)cc1 (single isomer, unassigned) [Compound 2] | < 100 | < 100 |  |
| CCS(=O)(=O)c1ccc([C@H](CO)NC(=O)c2cnc3c(c2)CN(C[C@H]2CC[C@H](C(F)(F)F)OC2)[C@H]3C(C)C)cc1 (single isomer, unassigned) [Compound 5] | < 100 | < 100 | < 0.1 |
| CCS(=O)(=O)c1ccc([C@H](CO)NC(=O)c2cnc3c(c2)CN(C[C@@H]2CC[C@@H](C(F)(F)F)CO2)[C@H]3C(C)C)cc1 (single isomer, unassigned) [Compound 14] | < 100 | < 100 |  |
| CCS(=O)(=O)c1ccc([C@H](CO)NC(=O)c2cnc3c(c2)CN(C[C@H]2CC[C@H](C(F)(F)F)CO2)[C@H]3C(C)C)cc1 (single isomer, unassigned) [Compound 15] | < 100 |  |  |
| CCS(=O)(=O)c1ccc([C@H](CO)NC(=O)c2cnc3c(c2)CN(C[C@@H]2CC[C@H](C(F)(F)F)CO2)[C@H]3C(C)C)cc1 (single isomer, unassigned) [Compound 18] | < 100 |  |  |
| CCS(=O)(=O)c1ccc([C@H](CO)NC(=O)c2cnc3c(c2)CN(C[C@H]2CC[C@@H](C(F)(F)F)CO2)[C@H]3C(C)C)cc1 (single isomer, unassigned) [Compound 21] | < 100 |  |  |
| CCS(=O)(=O)c1ccc([C@H](NC(=O)c2cnc3c(c2)CN(C[C@H]2CC[C@H](C(F)(F)F)CC2)[C@H]3C(C)C)[C@H](C)O)cc1 (single isomer, unassigned) [Compound 39] | < 100 | 100 to 200 |  |
| CCS(=O)(=O)c1ccc([C@@H](NC(=O)c2cnc3c(c2)CN(C[C@H]2CC[C@H](C(F)(F)F)CC2)[C@H]3C(C)C)[C@@H](C)O)cc1 (single isomer, unassigned) [Compound 42] | < 100 | > 200 |  |
| CCS(=O)(=O)c1ccc(C(C)(CO)NC(=O)c2cnc3c(c2)CN(C[C@H]2CC[C@H](C(F)(F)F)CC2)[C@H]3C(C)C)cc1 (stereo partly shown) [Compound 7] | < 100 |  | 0.1 to 1 |
| CC(C)[C@H]1c2ncc(C(=O)N[C@@H](CO)c3ccc(S(C)(=O)=O)cc3)cc2CN1C[C@H]1CC[C@@H](C(F)(F)F)CC1 [Compound 8] | < 100 |  | > 1 |
| CCS(=O)(=O)c1ccc(C(C)(CO)NC(=O)c2cnc3c(c2)CN(C[C@H]2CC[C@H](C(F)(F)F)CC2)[C@@H]3C(C)C)cc1 (stereo partly shown) [Compound 9] | 100 to 1000 |  |  |
| CCS(=O)(=O)c1ccc([C@H](CO)NC(=O)c2cnc3c(c2)CN(C[C@H]2CC[C@H](C(F)(F)F)CC2)C3C(F)(F)F)cc1 (stereo partly shown) [Compound 23] | < 100 |  | < 0.1 |
| CCS(=O)(=O)c1ccc([C@H](CO)NC(=O)c2cnc3c(c2)CN(C[C@H]2CC[C@H](C(F)(F)F)CC2)[C@H]3CC2CCOCC2)cc1 [Compound 27] | < 100 |  | < 0.1 |
| CCS(=O)(=O)c1ccc([C@H](CO)NC(=O)c2cnc3c(c2)CN(C[C@H]2CC[C@H](C(F)(F)F)CC2)[C@H]3C2CCOCC2)cc1 [Compound 31] | < 100 |  | < 0.1 |
| CCO[C@H]1CC[C@H](CN2Cc3cc(C(=O)N[C@@H](CO)c4ccc(S(=O)(=O)CC)cc4)cnc3[C@@H]2C(C)C)CC1 [Compound 43] | < 100 |  | < 0.1 |
| CCS(=O)(=O)c1ccc([C@@H](CO)NC(=O)c2cnc3c(c2)CN(C[C@H]2CC[C@H](C(F)(F)F)CC2)[C@H]3C(C)C)nc1 [Compound 44] |  | > 200 |  |
| CCS(=O)(=O)c1ccc([C@H](CO)NC(=O)c2cnc3c(c2)CN(C[C@H]2CC[C@H](C(F)(F)F)CC2)[C@H]3C(C)C)nc1 [Compound 45] |  | > 200 |  |

Next, values leading:

| Ki [1] [nM] | IC50 [2] [nM] | IC50 [3] [µM] | Compound |
| --- | --- | --- | --- |
| < 100 | < 100 |  | CC[C@H]1c2ncc(C(=O)N[C@@H](CO)c3ccc(S(=O)(=O)CC)cc3)cc2CN1C[C@H]1CC[C@H](C(F)(F)F)OC1 (single isomer, unassigned) [Compound 10] |
| < 100 |  |  | CC[C@H]1c2ncc(C(=O)N[C@@H](CO)c3ccc(S(=O)(=O)CC)cc3)cc2CN1C[C@@H]1CC[C@@H](C(F)(F)F)OC1 (single isomer, unassigned) [Compound 11] |
| < 100 |  | 0.1 to 1 | CCS(=O)(=O)c1ccc([C@H](CO)NC(=O)c2cnc3c(c2)CN(CC(F)(F)F)[C@@H]3Cc2ccccc2)cc1 [Compound 19] |
| < 100 |  | < 0.1 | CCS(=O)(=O)c1ccc([C@H](CO)NC(=O)c2cnc3c(c2)CN(CC(F)(F)F)[C@H]3Cc2ccccc2)cc1 [Compound 22] |
| < 100 |  | 0.1 to 1 | CCS(=O)(=O)c1ccc([C@H](CO)NC(=O)c2cnc3c(c2)CN(C[C@H]2CC[C@H](C(F)(F)F)CC2)[C@H]3C)cc1 [Compound 26] |
| > 1000 |  |  | CCS(=O)(=O)c1ccc([C@H](CO)NC(=O)c2cnc3c(c2)CN(C[C@H]2CC[C@H](C(F)(F)F)CC2)[C@@H]3C)cc1 [Compound 28] |
| 100 to 1000 |  |  | CCS(=O)(=O)c1ccc([C@H](CO)NC(=O)c2cnc3c(c2)CN(C)[C@H]3Cc2ccccc2)cc1 [Compound 35] |
| < 100 |  | < 0.1 | CCS(=O)(=O)c1ccc([C@H](CO)NC(=O)c2cnc3c(c2)CN(C[C@H]2CC[C@H](C(F)(F)F)CC2)[C@H]3Cc2ccccc2)cc1 [Compound 37] |
| 100 to 1000 |  |  | CCS(=O)(=O)c1ccc([C@H](CO)NC(=O)c2cnc3c(c2)CN(C[C@H]2CC[C@H](C(F)(F)F)CC2)[C@@H]3Cc2ccccc2)cc1 [Compound 40] |
|  | < 100 |  | CC[C@H]1c2ncc(C(=O)N[C@@H](CO)c3ccc(S(=O)(=O)CC)cc3)cc2CN1C[C@H]1CC[C@H](C(F)(F)F)CC1 [Compound 41, (S)-7-ethyl-N—((R)-1-(4-(ethylsulfonyl)phenyl)-2-hydroxyethyl)-6-((trans-4-(trifluoromethyl)cyclohexyl)methyl)-6,7-dihydro-5H-pyrrolo[3,4-b]pyridine-3-carboxamide] |
| < 100 | < 100 | < 0.1 | CCS(=O)(=O)c1ccc([C@H](CO)NC(=O)c2cnc3c(c2)CN(C[C@H]2CC[C@H](C(F)(F)F)CC2)[C@H]3C(C)C)cc1 [Compound 46, (S)—N—((R)-1-(4-(ethylsulfonyl)phenyl)-2-hydroxyethyl)-7-isopropyl-6-((trans-4-(trifluoromethyl)cyclohexyl)methyl)-6,7-dihydro-5H-pyrrolo[3,4-b]pyridine-3-carboxamide] |
| < 100 | > 200 | < 0.1 | CCS(=O)(=O)c1ccc([C@@H](CO)NC(=O)c2cnc3c(c2)CN(C[C@H]2CC[C@H](C(F)(F)F)CC2)[C@H]3C(C)C)cc1 [Compound 47] |
